Test results published in patent US20250013155A1, “MICROFLUIDIC POROUS MEMBRANE ELECTRICAL CELL-SUBSTRATE IMPEDANCE SENSING” (THE GOVERNING COUNCIL OF THE UNIVERSITY OF TORONTO, priority 2023, published 2025).

Key:
[1] = test system: confluent monolayer of HUVECs; assay: PM-ECIS resistance (4 kHz) response to EGTA and thrombin barrier disruption, 250/500/750 μm electrodes; format: cell-based, human; details: all electrode sizes
From the text: The PM-ECIS devices were connected to a 24-channel multiplexer, which in turn connected to a phase-sensitive lock-in amplifier (LIA) and computer (FIG. 9D), The overall circuit for the ECIS system follows the set up described by Giaever and Keese. The LIA acts to both generate an alternating current signal, and receive signal measured across the cell layer. An alternating current signal of 1 V rms was generated at a specified frequency, connected to a 1 MΩ resistor to provide a 1 μA current. Cell-free devices were filled with culture medium and measurements taken over at least 12 hours to establish baseline impedance. The voltage drop across the device containing cells grown on electrodes was detected and measured by the LIA, which allows for small AC signals to be resolved in high noise systems. A cell-free baseline was established beforehand using cell-free devices filled with culture medium and impedance measurements taken over the course of at least 12 hours prior to cell seeding. LIA outputs including voltage drop and phase angle were used to calculate and plot impedance and resistance values.
Cells were incubated in 5 mM EGTA (Sigma-Aldrich, E3889) diluted in Endothelial Growth Medium at 37° C. and 5% CO2 for 2 hours, with ECIS measurements taken every 15 min. After 2 hours, EGTA was removed and replaced with fresh growth medium. For transient disruption of the endothelial barrier, cells were stimulated with 1 U/mL of thrombin from bovine plasma (Sigma-Aldrich, T6634) diluted in Endothelial Growth Medium at 37° C. and 5% CO2 for 2 hours, with measurements taken every 5 min.
To assess the effect of electrode size in PM-ECIS response to barrier disruption, a confluent monolayer of HUVECs was subjected to 2-hour treatment with EGTA. EGTA disrupts cell barriers by chelating Ca2+ ions to destabilize tight junctions. […]

HUVEC monolayers = assay: PM-ECIS resistance of HUVEC monolayers on 6-well inserts after thrombin barrier disruption; format: cell-based, human; details: 1 U/mL thrombin in fresh media, HUVECs, 6-well PM-ECIS
Protocol: A lock-in amplifier (LIA) (SR850, Stanford Research Systems) was used to simultaneously generate AC current and read impedance data from the devices. An Arduino-operated multiplexer was used to switch between devices. Using a 1 V rms input voltage, in series with a 1 MΩ resistor, electrodes (typ. 500 μm dia.) were stimulated at frequencies of 400, 4000 and 40000 Hz, and any voltage drops (at the locked frequencies) across the electrodes were sampled with the LIA every 15 or 60 mins. Prior to use, the devices without cells were left in media for at least 12 hours to record a stable cell-free impedance baseline for each electrode at each frequency.
Cell barrier resistance (Rb), capacitance (Cm), and basal barrier beneath the cells (a) were modeled and calculated using ECIS Core software (Applied Biophysics, v1.2.215.0 PC) using the raw impedance values taken at 400, 4000, and 40000 Hz.

## O=C(O)CN(CCOCCOCCN(CC(=O)O)CC(=O)O)CC(=O)O [EGTA, ethylene glycol-bis(β-aminoethyl ether)-N,N,N′,N′-tetraacetic acid]
[1]; 5 mM EGTA, 4 kHz
  time to drop in resistance after treatment: ≤ 15 min

## thrombin: thrombin from bovine plasma (Sigma), used to disrupt cell-cell junctions
HUVEC monolayers
  change in 4 kHz PM-ECIS resistance after addition of thrombin: acute resistance drop
[1]; 1 U/mL thrombin, 4 kHz
  change in resistance after thrombin treatment: immediate drop in resistance
[1]; 1 U/mL thrombin
  time for resistances to return to or close to pre-treatment values: ≤ 120 min
